These results are taken from paper PMC9030254, “Target Hopping from Protein Kinases to PXR: Identification of Small-Molecule Protein Kinase Inhibitors as Selective Modulators of Pregnane X Receptor from TüKIC Library” (Cells, 2022).

SMILES strings stand for the structures.

Assay in all cases: Kinase profiling
Common to all, as to format: biochemical

One experiment has as its target T1, ALK (Homo sapiens, UniProt Q9UM73).
T1 construct: purchased ProQinase (Freiburg, Germany)
As for the experimental part:
(§1) The analysis was performed by ProQinase (Freiburg, Germany).

Another experiment addresses T2, AuroraB (Homo sapiens, UniProt Q96GD4).
T2 construct: purchased ProQinase (Freiburg, Germany)
As for the experimental part:
as §1

In a further experiment the target is T3, DAPK3 (Homo sapiens, UniProt O43293).
T3 construct: purchased ProQinase (Freiburg, Germany)
T3 sequence (O43293 whole entry): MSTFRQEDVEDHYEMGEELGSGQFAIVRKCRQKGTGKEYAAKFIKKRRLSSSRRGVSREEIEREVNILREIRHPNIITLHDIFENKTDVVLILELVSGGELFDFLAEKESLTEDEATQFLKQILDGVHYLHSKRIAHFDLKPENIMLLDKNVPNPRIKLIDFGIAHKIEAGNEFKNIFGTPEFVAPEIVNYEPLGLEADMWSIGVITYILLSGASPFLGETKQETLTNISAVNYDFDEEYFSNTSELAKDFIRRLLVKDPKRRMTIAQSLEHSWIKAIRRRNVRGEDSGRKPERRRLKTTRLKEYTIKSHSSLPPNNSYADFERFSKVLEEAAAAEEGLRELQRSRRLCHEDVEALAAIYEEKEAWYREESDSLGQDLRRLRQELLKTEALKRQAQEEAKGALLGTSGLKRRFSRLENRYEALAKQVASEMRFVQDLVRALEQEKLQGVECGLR
As for the experimental part: as §1

The target of another experiment is T4, IGF1R (Homo sapiens, UniProt P08069).
T4 construct: purchased ProQinase (Freiburg, Germany)
T4 sequence (P08069 31-1367): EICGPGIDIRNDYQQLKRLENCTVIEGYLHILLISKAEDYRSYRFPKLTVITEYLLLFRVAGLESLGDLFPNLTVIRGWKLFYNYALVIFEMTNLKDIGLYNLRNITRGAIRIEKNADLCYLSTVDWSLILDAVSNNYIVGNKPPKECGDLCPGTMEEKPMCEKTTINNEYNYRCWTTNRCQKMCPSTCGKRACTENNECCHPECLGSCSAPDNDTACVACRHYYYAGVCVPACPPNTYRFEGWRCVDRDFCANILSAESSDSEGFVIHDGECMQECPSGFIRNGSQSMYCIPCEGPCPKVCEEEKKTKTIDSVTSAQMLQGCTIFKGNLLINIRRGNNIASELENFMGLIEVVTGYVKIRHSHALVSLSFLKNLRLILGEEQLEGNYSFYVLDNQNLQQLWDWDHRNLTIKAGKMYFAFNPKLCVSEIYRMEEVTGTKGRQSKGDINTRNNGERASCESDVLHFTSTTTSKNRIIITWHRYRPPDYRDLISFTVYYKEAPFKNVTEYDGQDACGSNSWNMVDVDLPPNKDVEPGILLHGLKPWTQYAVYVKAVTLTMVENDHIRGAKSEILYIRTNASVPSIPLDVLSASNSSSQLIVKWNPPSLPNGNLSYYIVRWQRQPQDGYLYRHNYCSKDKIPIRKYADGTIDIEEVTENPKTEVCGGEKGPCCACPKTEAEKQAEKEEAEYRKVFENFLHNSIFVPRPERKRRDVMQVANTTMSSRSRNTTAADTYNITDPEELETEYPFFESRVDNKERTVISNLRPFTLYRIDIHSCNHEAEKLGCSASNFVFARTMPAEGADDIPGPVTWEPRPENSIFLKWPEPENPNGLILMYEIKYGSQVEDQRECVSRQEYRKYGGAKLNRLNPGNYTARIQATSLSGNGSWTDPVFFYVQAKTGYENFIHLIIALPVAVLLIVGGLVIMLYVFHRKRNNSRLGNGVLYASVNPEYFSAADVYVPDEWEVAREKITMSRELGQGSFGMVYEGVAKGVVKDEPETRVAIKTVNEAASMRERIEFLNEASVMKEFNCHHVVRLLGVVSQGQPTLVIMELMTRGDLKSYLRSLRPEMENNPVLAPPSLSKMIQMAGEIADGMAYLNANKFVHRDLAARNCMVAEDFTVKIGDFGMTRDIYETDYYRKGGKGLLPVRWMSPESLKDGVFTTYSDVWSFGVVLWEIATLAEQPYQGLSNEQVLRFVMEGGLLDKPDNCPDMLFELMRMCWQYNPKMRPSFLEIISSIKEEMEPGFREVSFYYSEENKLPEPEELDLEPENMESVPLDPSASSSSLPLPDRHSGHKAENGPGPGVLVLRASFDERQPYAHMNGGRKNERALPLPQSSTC
As for the experimental part:
as §1

The target of the next experiment is T5, JNK2 (Homo sapiens, UniProt P45984).
T5 construct: purchased ProQinase (Freiburg, Germany)
T5 sequence (P45984 whole entry): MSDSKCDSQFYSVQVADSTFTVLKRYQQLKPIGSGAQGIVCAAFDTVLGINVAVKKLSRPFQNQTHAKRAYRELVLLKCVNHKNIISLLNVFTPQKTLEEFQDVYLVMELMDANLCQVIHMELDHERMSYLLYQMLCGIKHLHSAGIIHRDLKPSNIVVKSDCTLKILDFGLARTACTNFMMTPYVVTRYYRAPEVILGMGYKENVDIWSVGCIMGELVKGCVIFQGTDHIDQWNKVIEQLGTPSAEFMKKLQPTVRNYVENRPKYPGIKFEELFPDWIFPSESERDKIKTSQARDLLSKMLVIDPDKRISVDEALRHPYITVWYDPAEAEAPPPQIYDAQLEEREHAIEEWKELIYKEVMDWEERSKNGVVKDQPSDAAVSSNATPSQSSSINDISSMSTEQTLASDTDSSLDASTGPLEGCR
As for the experimental part:
as §1

The next experiment has as its target T6, PKMzeta (Homo sapiens, UniProt Q05513).
T6 construct: PKMzeta; purchased ProQinase (Freiburg, Germany)
T6 sequence (Q05513 184-592 limits assumed): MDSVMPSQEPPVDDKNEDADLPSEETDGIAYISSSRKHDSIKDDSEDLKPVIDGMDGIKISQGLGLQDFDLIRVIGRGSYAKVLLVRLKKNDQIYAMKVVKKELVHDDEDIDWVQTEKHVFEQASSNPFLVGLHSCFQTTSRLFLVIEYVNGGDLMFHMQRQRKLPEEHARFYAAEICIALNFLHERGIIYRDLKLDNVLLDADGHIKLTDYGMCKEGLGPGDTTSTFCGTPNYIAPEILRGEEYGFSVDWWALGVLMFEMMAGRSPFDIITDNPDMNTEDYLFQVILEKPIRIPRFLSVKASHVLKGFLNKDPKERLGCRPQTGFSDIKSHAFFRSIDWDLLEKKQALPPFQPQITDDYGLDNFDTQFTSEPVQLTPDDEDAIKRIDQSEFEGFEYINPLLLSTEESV
As for the experimental part: as §1

For a further experiment, the target named is T7, PLK1 (Homo sapiens, UniProt P53350).
T7 construct: purchased ProQinase (Freiburg, Germany)
T7 sequence (P53350 whole entry): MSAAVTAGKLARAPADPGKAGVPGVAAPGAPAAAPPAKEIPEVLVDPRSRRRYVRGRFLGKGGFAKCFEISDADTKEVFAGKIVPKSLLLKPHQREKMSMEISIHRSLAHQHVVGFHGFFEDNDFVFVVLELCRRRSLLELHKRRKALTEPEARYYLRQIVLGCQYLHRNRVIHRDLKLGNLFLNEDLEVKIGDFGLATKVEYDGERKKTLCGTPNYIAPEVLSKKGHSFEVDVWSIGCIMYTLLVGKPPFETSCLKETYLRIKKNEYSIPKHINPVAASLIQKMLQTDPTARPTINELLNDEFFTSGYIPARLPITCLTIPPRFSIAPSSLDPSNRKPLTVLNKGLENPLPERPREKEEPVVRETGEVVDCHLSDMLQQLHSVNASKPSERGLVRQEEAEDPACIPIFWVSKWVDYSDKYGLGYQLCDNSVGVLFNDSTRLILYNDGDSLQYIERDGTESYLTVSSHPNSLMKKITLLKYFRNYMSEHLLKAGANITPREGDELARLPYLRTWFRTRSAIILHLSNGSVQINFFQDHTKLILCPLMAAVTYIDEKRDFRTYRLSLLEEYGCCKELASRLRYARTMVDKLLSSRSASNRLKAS
As for the experimental part: as §1

The target in the next experiment is T8, PRKD2 (Homo sapiens, UniProt Q9BZL6).
T8 construct: purchased ProQinase (Freiburg, Germany)
T8 sequence (Q9BZL6 1-878): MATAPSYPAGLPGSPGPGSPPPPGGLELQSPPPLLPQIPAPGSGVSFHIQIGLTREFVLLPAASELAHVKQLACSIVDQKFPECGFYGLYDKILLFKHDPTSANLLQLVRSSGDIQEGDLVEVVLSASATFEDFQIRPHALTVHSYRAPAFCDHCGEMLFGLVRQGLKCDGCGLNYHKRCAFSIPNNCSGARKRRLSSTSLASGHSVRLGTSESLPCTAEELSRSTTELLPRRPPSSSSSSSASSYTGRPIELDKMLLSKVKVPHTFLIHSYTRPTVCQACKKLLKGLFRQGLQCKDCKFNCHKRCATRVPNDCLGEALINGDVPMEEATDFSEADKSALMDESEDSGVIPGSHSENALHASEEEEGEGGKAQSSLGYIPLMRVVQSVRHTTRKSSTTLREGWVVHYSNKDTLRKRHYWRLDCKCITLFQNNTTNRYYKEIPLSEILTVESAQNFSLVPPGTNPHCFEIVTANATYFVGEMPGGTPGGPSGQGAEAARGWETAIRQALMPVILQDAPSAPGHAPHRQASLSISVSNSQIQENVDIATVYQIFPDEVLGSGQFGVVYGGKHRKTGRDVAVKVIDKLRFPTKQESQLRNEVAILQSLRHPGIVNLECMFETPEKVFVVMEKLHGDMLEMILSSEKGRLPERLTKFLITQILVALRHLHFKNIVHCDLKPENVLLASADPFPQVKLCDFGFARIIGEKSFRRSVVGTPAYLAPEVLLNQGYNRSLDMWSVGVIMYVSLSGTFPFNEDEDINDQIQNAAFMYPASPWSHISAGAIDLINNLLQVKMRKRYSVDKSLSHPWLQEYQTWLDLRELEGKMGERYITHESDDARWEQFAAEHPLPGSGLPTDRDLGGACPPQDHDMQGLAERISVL
As for the experimental part: as §1

In another experiment the target is T9, p38delta (Homo sapiens, UniProt O15264).
T9 construct: purchased ProQinase (Freiburg, Germany)
T9 sequence (O15264 1-365): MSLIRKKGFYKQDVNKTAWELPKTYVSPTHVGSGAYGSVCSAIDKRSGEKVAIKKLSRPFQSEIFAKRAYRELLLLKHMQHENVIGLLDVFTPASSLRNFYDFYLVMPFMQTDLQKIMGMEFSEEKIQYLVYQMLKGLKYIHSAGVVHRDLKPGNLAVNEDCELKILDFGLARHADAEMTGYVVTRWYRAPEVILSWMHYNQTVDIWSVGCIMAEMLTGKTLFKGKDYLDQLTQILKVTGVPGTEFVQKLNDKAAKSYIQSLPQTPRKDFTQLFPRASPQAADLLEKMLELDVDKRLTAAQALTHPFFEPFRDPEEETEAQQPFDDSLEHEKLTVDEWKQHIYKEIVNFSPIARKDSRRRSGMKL
As for the experimental part: as §1

T2 sequence (Q96GD4 whole entry): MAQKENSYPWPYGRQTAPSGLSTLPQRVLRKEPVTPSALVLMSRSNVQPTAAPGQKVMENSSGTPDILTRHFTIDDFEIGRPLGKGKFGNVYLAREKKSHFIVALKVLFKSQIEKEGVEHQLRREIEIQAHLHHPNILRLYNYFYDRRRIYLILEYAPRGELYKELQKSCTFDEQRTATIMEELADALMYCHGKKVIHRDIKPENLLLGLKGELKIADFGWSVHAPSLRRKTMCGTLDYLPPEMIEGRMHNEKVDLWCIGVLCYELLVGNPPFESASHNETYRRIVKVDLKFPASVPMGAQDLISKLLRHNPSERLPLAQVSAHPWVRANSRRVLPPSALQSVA
T1 sequence (Q9UM73 19-1620): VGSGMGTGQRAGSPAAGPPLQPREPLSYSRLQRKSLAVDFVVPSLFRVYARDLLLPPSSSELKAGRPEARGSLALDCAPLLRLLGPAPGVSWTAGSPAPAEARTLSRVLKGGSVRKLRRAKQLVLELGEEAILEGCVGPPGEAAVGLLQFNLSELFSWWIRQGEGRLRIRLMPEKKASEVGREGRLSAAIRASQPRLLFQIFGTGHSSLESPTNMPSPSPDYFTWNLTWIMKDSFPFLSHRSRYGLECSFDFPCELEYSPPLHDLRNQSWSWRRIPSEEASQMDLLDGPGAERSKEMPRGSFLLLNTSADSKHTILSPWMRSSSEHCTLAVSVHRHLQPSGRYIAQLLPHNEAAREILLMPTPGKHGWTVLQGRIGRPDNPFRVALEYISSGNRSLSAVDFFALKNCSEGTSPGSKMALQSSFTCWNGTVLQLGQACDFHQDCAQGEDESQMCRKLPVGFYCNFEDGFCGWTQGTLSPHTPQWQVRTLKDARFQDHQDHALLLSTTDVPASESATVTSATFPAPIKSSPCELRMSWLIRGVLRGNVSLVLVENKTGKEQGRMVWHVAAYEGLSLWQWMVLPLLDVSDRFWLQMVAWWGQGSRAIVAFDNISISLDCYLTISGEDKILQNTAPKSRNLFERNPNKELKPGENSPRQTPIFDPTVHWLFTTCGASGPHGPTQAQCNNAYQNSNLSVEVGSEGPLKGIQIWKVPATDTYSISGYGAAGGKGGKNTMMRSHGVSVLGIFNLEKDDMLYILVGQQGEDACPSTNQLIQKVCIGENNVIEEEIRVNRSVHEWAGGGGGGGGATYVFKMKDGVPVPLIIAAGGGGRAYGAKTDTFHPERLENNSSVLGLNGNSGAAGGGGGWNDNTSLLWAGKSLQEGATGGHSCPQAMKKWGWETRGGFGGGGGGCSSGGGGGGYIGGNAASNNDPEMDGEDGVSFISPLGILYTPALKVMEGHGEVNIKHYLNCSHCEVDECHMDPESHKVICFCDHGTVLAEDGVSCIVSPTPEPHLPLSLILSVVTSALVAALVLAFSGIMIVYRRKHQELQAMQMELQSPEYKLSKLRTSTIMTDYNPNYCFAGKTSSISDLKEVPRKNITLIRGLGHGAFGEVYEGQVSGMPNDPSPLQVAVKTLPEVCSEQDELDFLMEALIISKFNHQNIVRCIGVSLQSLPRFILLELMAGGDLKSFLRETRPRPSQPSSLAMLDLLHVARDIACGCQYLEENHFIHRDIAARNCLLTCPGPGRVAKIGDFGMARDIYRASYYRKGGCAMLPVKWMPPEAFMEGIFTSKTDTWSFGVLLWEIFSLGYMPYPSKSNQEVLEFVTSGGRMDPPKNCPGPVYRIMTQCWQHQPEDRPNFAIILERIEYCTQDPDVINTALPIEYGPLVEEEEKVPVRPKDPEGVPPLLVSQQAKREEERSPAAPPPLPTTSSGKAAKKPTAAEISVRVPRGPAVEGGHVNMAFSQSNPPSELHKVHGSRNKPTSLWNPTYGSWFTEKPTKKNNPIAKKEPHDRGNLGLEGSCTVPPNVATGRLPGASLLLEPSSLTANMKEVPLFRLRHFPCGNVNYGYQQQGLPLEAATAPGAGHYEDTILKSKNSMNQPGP

As for `O=C(Cc1ccccc1)Nc1ccc(F)c(Nc2ccc3c(c2)CCCCC3=O)c1` [Compound 100], the Residual activity is reported as 72 % of control on ALK (1.0E-05 M); 86 % of control on ALK (1.0E-06 M); 90 % of control on AuroraB (1.0E-05 M); 101 % of control at AuroraB (1.0E-06 M); 119 % of control on DAPK3 (1.0E-05 M); 105 % of control on DAPK3 (1.0E-06 M). The Residual activity at IGF1R (1.0E-05 M) is given as 101 % of control; on IGF1R (1.0E-06 M) it was 97 % of control; on JNK2 (1.0E-05 M) it was 79 % of control; on JNK2 (1.0E-06 M), 87 % of control; at PKMzeta (1.0E-05 M), 98 % of control; on PKMzeta (1.0E-06 M), 105 % of control. Besides, the Residual activity at PLK1 (1.0E-05 M) is on record as 90 % of control; at PLK1 (1.0E-06 M), 103 % of control; at PRKD2 (1.0E-05 M), 92 % of control; on PRKD2 (1.0E-06 M), 87 % of control; on p38delta (1.0E-05 M) it was 85 % of control; on p38delta (1.0E-06 M), 93 % of control.

As to `O=C(Nc1ccc(F)c(Nc2ccc3c(c2)CCCCC3=O)c1)c1cccc(F)c1` [Compound 109], the Residual activity at ALK (1.0E-05 M) was 92 % of control; at ALK (1.0E-06 M), 95 % of control; at AuroraB (1.0E-05 M), 85 % of control; on AuroraB (1.0E-06 M), 101 % of control; at DAPK3 (1.0E-05 M), 107 % of control; at DAPK3 (1.0E-06 M), 108 % of control. The Residual activity on IGF1R (1.0E-05 M) was 80 % of control; on IGF1R (1.0E-06 M), 104 % of control; at JNK2 (1.0E-05 M), 97 % of control; on JNK2 (1.0E-06 M) it was 88 % of control; on PKMzeta (1.0E-05 M), 88 % of control; at PKMzeta (1.0E-06 M) it was 103 % of control. Besides, the Residual activity on PLK1 (1.0E-05 M) is listed as 96 % of control; on PLK1 (1.0E-06 M), 94 % of control; at PRKD2 (1.0E-05 M), 81 % of control; at PRKD2 (1.0E-06 M), 82 % of control; at p38delta (1.0E-05 M), 98 % of control; at p38delta (1.0E-06 M), 91 % of control.
